Experimental data published in patent US20250145585A1, “HETEROCYCLIC INHIBITORS OF IGF-1R FOR TREATMENT OF DISEASE” (HORIZON THERAPEUTICS IRELAND DAC, priority 2023, published 2025).

Target: T1, IGF-1R (Homo sapiens, UniProt P08069)
T1 construct: expressed in transfected cells
Assay: Example B-1: IGF-1R Assay (PC3 cells stimulated with IGF1, AlphaLISA on cell lysates)
Type: cell-based
Details: compound two hours, IGF1 200 ng/mL for 30 min, read-out: IC50, Biological Activity against IGF-1R (Table B1)
Method: 50K PC3 cells were seeded on day 1 in 50 μL of media in 96-well plate and incubated overnight at 37° C., 5% CO2. On day 2, all cells were expected to be at 80-90% confluency. Cells were starved for two hours by changing the media to 90 μL of EMEM serum-free media and incubated for 2 hours. Next, cells were treated with 10 μL of 10× concentrated and 3× serially diluted compounds for two hours. It makes 1× of compounds in 100 μL media. This was followed by stimulation of cells with 11×IGF1 for 30 min in 10 μL of serum-free EMEM media at the final concentration of 200 ng/mL.
The media was removed and replaced by 50 μL of 1× lysis buffer from the AlphaLISA kit (with 1× of cOmplete™ protease inhibitor). The plates were sealed, and cells were allowed to lyse for 10 min in the shaker before storing the plate at −20° C. until used. The AlphaLISA assay with processed cell lysates were performed as described in the protocol. Briefly, 10 μL of the undiluted sample were loaded to 384 well Optiplates and 5 μL of the acceptor mix (as described in the AlphaLISA kit) was added to each well. The plates were sealed and briefly vortexed followed by the incubation at RT for 3 hours. In the dark, 5 μL of donor mix was added to each well. All plates were sealed and stored at RT overnight. The plates were read in EnVision reader using standard AlphaLISA settings.
Compound activity was analyzed using CBIS data analysis suite (Cheminnovation, CA). Percentage inhibition was calculated using the following formula: % I-hibition=100%×(1−(mea−RLU of test sample−mean RLU of vehicle control)/(mean-RLU of EC80 control−mean RLU of vehicle control)). The activity for representative examples of the invention is shown in the following table, wherein A: IC50≤500 nM; B: 500 nM<IC50≤2 μM; C: 2 μM<IC50≤10 μM; D: IC50>10 μM.

T1 sequence (P08069 31-1367): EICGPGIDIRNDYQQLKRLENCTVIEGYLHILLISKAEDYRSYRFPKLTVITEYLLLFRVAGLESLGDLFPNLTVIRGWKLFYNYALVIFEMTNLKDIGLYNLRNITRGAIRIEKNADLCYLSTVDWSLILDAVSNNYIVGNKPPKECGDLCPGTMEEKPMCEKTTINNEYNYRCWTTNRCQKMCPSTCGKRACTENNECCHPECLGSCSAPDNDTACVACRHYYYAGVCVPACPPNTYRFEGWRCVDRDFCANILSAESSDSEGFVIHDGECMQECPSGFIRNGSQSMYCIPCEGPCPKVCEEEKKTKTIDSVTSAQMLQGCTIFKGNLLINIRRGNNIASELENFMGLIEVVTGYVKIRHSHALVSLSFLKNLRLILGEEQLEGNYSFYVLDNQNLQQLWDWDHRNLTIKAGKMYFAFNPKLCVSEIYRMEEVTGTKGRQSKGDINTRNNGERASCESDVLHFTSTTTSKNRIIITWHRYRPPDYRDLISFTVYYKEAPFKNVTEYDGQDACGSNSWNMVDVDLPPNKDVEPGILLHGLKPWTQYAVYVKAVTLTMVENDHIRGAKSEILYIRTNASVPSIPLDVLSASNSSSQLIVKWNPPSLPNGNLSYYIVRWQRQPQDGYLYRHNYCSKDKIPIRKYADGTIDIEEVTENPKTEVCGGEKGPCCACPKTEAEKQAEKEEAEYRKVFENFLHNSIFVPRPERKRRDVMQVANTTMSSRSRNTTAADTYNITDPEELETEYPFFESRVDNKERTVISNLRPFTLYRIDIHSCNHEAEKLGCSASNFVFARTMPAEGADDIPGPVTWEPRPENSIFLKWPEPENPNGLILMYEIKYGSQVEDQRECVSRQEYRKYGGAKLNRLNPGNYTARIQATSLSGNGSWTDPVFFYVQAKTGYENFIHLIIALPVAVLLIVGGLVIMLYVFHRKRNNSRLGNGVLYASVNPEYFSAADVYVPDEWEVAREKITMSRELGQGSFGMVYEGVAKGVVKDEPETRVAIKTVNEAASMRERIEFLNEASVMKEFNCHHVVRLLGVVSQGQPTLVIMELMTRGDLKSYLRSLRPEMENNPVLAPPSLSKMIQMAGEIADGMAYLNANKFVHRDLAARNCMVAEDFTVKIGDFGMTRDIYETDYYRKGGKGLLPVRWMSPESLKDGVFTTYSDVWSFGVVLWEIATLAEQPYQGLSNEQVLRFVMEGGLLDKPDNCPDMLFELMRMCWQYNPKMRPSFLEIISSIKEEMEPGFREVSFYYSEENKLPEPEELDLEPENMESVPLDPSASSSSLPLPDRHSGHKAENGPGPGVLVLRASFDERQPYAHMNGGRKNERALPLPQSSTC

SMILES	IC50
CC1(C)C(=O)N(c2ccc(C3(C(F)(F)F)CC3)cc2)C(=O)N1Cc1ccnc2[nH]c(-c3ccccc3)cc12 [Compound 11, 5,5-dimethyl-1-((2-phenyl-1H-pyrrolo[2,3-b]pyridin-4-yl)methyl)-3-(4-(1-(trifluoromethyl)cyclopropyl)phenyl) imidazolidine-2,4-dione]	≤ 0.5 µM
CC1(C)C(=O)N(c2ccc(SC(F)(F)F)cc2)C(=O)N1Cc1ccnc(NC(=O)Nc2ccc(F)cc2)c1 [Compound 368, 1-(4-((5,5-dimethyl-2,4-dioxo-3-(4-((trifluoromethyl)thio)phenyl)imidazolidin-1-yl)methyl)pyridin-2-yl)-3-(4-fluorophenyl)urea]	≤ 0.5 µM
CC(C)[C@H]1C(=O)N(c2ccc(S(=O)(=O)C(F)(F)F)cc2)C(=O)N1Cc1ccnc(N)c1 [Compound 300, (S)-1-((2-aminopyridin-4-yl)methyl)-5-isopropyl-3-(4-((trifluoromethyl)sulfonyl)phenyl)imidazolidine-2,4-dione]	2 to 10 µM
Cc1cccc(NC(=O)Nc2cc(CN3C(=O)N(c4ccc(SC(F)(F)F)cc4)C(=O)C3(C)C)ccn2)c1 [Compound 372, 1-(4-((5,5-dimethyl-2,4-dioxo-3-(4-((trifluoromethyl)thio)phenyl)imidazolidin-1-yl)methyl)pyridin-2-yl)-3-(m-tolyl)urea]	≤ 0.5 µM
CC1(C)C(=O)N(c2ccc(SC(F)(F)F)cc2)C(=O)N1Cc1ccnc(NC(=O)Nc2ccc(C#N)cc2)c1 [Compound 376, 1-(4-cyanophenyl)-3-(4-((5,5-dimethyl-2,4-dioxo-3-(4-((trifluoromethyl)thio)phenyl)imidazolidin-1-yl)methyl)pyridin-2-yl)urea]	≤ 0.5 µM

Results, then the molecule that gave them:

IC50	SMILES
≤ 0.5 µM	CC1(C)C(=O)N(c2ccc(C3(C(F)(F)F)CC3)cc2)C(=O)N1Cc1ccnc(NCC(F)F)c1 [Compound 103, 1-((2-((2,2-difluoroethyl)amino)pyridin-4-yl)methyl)-5,5-dimethyl-3-(4-(1-(trifluoromethyl)cyclopropyl)phenyl) imidazolidine-2,4-dione]
≤ 0.5 µM	Cn1cc(NC(=O)Nc2cc(CN3C(=O)N(c4ccc(SC(F)(F)F)cc4)C(=O)C3(C)C)ccn2)cn1 [Compound 350, 1-(4-((5,5-dimethyl-2,4-dioxo-3-(4-((trifluoromethyl)thio)phenyl)imidazolidin-1-yl)methyl)pyridin-2-yl)-3-(1-methyl-1H-pyrazol-4-yl)urea]
≤ 0.5 µM	CC(C)Nc1cc(CN2C(=O)N(c3ccc(C4CC4(C)C)cc3)C(=O)C2(C)C)ccn1 (stereo not drawn) [Compound 108, 3-(4-(2,2-dimethylcyclopropyl)phenyl)-1-((2-(isopropylamino)pyridin-4-yl)methyl)-5,5-dimethylimidazolidine-2,4-dione]
0.5 to 2 µM	CC(C)(C)c1ccc(N2C(=O)N(Cc3ccnc(-c4ccccc4)c3)C(C)(C)C2=O)cc1 [Compound 346, 3-(4-(tert-butyl)phenyl)-5,5-dimethyl-1-((2-phenylpyridin-4-yl)methyl)imidazoline-2,4-dione]
≤ 0.5 µM	CC(C)Nc1cc(CN2C(=O)N(c3ccc(SC(F)(F)F)cc3)C(=O)C2(C)C)c(F)cn1 [Compound 384, 1-((5-fluoro-2-(isopropylamino)pyridin-4-yl)methyl)-5,5-dimethyl-3-(4-((trifluoromethyl)thio)phenyl) imidazolidine-2,4-dione]
0.5 to 2 µM	CC(C)(C)c1ccc(N2C(=O)N(Cc3ccnc(NC4(CO)CC4)c3)C(C)(C)C2=O)cc1 [Compound 271, 3-(4-(tert-butyl)phenyl)-1-((2-((1-(hydroxymethyl)cyclopropyl)amino)pyridin-4-yl)methyl)-5,5-dimethylimidazolidine-2,4-dione]
≤ 0.5 µM	CC(C)(C)c1ccc(N2C(=O)N(Cc3ccnc4[nH]cc(Cl)c34)C(C)(C)C2=O)cc1 [Compound 6, 3-(4-(tert-butyl)phenyl)-1-((3-chloro-1H-pyrrolo[2,3-b]pyridin-4-yl)methyl)-5,5-dimethylimidazolidine-2,4-dione]
